The NIST ThermoML archive (doi:10.1021/je7001013)

Legend:
[1] = refractive index (Na D-line) (dimensionless); xn = mol fraction of the nth substance listed; details: 101 kPa, Liquid
[2] = xn = mol fraction of the nth substance listed; details: Maximal bubble pressure

C[S+](C)[O-] [dimethyl sulfoxide] + O
Details | refractive index, [1] | surface tension liquid-gas, [2] [mN/m]
298.15 K, x1 = 0.0121 | 1.34 | 71
298.15 K, x1 = 0.0202 | 1.344 | 69.7
298.15 K, x1 = 0.1044 | – | 61.2
298.15 K, x1 = 0.1467 | 1.396 | –
298.15 K, x1 = 0.1979 | – | 56.7
298.15 K, x1 = 0.2455 | 1.4215 | –
298.15 K, x1 = 0.2507 | – | 55.4
298.15 K, x1 = 0.2959 | 1.4305 | –
298.15 K, x1 = 0.2999 | – | 53.3
298.15 K, x1 = 0.3187 | – | 53.1
298.15 K, x1 = 0.3213 | 1.4345 | –
298.15 K, x1 = 0.3536 | – | 52.6
298.15 K, x1 = 0.3713 | 1.4415 | –
298.15 K, x1 = 0.3802 | – | 52
298.15 K, x1 = 0.3967 | 1.4445 | –
298.15 K, x1 = 0.4191 | – | 51
298.15 K, x1 = 0.4301 | 1.4475 | –
298.15 K, x1 = 0.4523 | – | 50.3
298.15 K, x1 = 0.501 | – | 48.3
298.15 K, x1 = 0.59 | – | 46
298.15 K, x1 = 0.5964 | 1.461 | –
298.15 K, x1 = 0.7027 | – | 44
298.15 K, x1 = 0.7685 | 1.47 | –
298.15 K, x1 = 0.8088 | – | 42.6
298.15 K, x1 = 0.8945 | – | 42
303.15 K, x1 = 0.0121 | 1.339 | 70.1
303.15 K, x1 = 0.0202 | 1.3435 | 68.7
303.15 K, x1 = 0.1044 | – | 60.6
303.15 K, x1 = 0.1467 | 1.4005 | –
303.15 K, x1 = 0.1979 | – | 55.8
303.15 K, x1 = 0.2455 | 1.42 | –
303.15 K, x1 = 0.2507 | – | 54.5
303.15 K, x1 = 0.2959 | 1.4295 | –
303.15 K, x1 = 0.2999 | – | 52.4
303.15 K, x1 = 0.3187 | – | 52.3
303.15 K, x1 = 0.3213 | 1.4335 | –
303.15 K, x1 = 0.3536 | – | 51.7
303.15 K, x1 = 0.3713 | 1.4405 | –
303.15 K, x1 = 0.3802 | – | 51.2
303.15 K, x1 = 0.3967 | 1.443 | –
303.15 K, x1 = 0.4191 | – | 50
303.15 K, x1 = 0.4301 | 1.4455 | –
303.15 K, x1 = 0.4523 | – | 49.9
303.15 K, x1 = 0.501 | – | 47.4
303.15 K, x1 = 0.59 | – | 45.2
303.15 K, x1 = 0.5964 | 1.459 | –
303.15 K, x1 = 0.7027 | – | 43.4
303.15 K, x1 = 0.7685 | 1.468 | –
303.15 K, x1 = 0.8088 | – | 42.1
303.15 K, x1 = 0.8945 | – | 41.4
308.15 K, x1 = 0.0121 | 1.3395 | 69.2
308.15 K, x1 = 0.0202 | 1.343 | 67.9
308.15 K, x1 = 0.1044 | – | 59.8
308.15 K, x1 = 0.1467 | 1.4 | –
308.15 K, x1 = 0.1979 | – | 54.8
308.15 K, x1 = 0.2455 | 1.419 | –
308.15 K, x1 = 0.2507 | – | 53.2
308.15 K, x1 = 0.2959 | 1.428 | –
308.15 K, x1 = 0.2999 | – | 51.5
308.15 K, x1 = 0.3187 | – | 51.4
308.15 K, x1 = 0.3213 | 1.432 | –
308.15 K, x1 = 0.3536 | – | 50.6
308.15 K, x1 = 0.3713 | 1.4395 | –
308.15 K, x1 = 0.3802 | – | 50.3
308.15 K, x1 = 0.3967 | 1.442 | –
308.15 K, x1 = 0.4191 | – | 49.2
308.15 K, x1 = 0.4301 | 1.4445 | –
308.15 K, x1 = 0.4523 | – | 49.1
308.15 K, x1 = 0.501 | – | 46.7
308.15 K, x1 = 0.59 | – | 44.6
308.15 K, x1 = 0.5964 | 1.458 | –
308.15 K, x1 = 0.7027 | – | 42.6
308.15 K, x1 = 0.7685 | 1.466 | –
308.15 K, x1 = 0.8088 | – | 41.5
308.15 K, x1 = 0.8945 | – | 40.9
313.15 K, x1 = 0.0121 | – | 67.6
313.15 K, x1 = 0.0202 | – | 66.9
313.15 K, x1 = 0.1044 | – | 58.7
313.15 K, x1 = 0.1979 | – | 53.9
313.15 K, x1 = 0.2507 | – | 52.3
313.15 K, x1 = 0.2999 | – | 50.6
313.15 K, x1 = 0.3187 | – | 50.4
313.15 K, x1 = 0.3536 | – | 50
313.15 K, x1 = 0.3802 | – | 49.5
313.15 K, x1 = 0.4191 | – | 48.4
313.15 K, x1 = 0.4523 | – | 48.2
313.15 K, x1 = 0.501 | – | 46
313.15 K, x1 = 0.59 | – | 43.8
313.15 K, x1 = 0.7027 | – | 42.1
313.15 K, x1 = 0.8088 | – | 40.9
313.15 K, x1 = 0.8945 | – | 40.3
318.15 K, x1 = 0.0121 | – | 66.4
318.15 K, x1 = 0.0202 | – | 65.8
318.15 K, x1 = 0.1044 | – | 57.9
318.15 K, x1 = 0.1979 | – | 53
318.15 K, x1 = 0.2507 | – | 51.2
318.15 K, x1 = 0.3218 | – | 50.7
318.15 K, x1 = 0.3506 | – | 49.7
318.15 K, x1 = 0.3549 | – | 49.4
318.15 K, x1 = 0.3802 | – | 48.6
318.15 K, x1 = 0.4191 | – | 47.5
318.15 K, x1 = 0.4523 | – | 47.3
318.15 K, x1 = 0.501 | – | 45.1
318.15 K, x1 = 0.59 | – | 43.1
318.15 K, x1 = 0.7027 | – | 41.4
318.15 K, x1 = 0.8088 | – | 40.4
318.15 K, x1 = 0.8945 | – | 39.8
323.15 K, x1 = 0.0121 | – | 65.3
323.15 K, x1 = 0.0202 | – | 64.8
323.15 K, x1 = 0.1044 | – | 57
323.15 K, x1 = 0.1979 | – | 52.2
323.15 K, x1 = 0.2507 | – | 50.3
323.15 K, x1 = 0.3218 | – | 49.9
323.15 K, x1 = 0.3506 | – | 48.7
323.15 K, x1 = 0.3549 | – | 48.4
323.15 K, x1 = 0.3802 | – | 47.7
323.15 K, x1 = 0.4191 | – | 46.7
323.15 K, x1 = 0.4523 | – | 46.3
323.15 K, x1 = 0.501 | – | 44.4
323.15 K, x1 = 0.59 | – | 42.3
323.15 K, x1 = 0.7027 | – | 40.8
323.15 K, x1 = 0.8088 | – | 39.8
323.15 K, x1 = 0.8945 | – | 39.2
328.15 K, x1 = 0.0121 | – | 65.1
328.15 K, x1 = 0.0202 | – | 63.8
328.15 K, x1 = 0.1044 | – | 55.1
328.15 K, x1 = 0.1979 | – | 51.1
328.15 K, x1 = 0.2507 | – | 49.4
328.15 K, x1 = 0.3218 | – | 49
328.15 K, x1 = 0.3506 | – | 47.7
328.15 K, x1 = 0.3549 | – | 47.4
328.15 K, x1 = 0.3802 | – | 46.8
328.15 K, x1 = 0.4191 | – | 45.9
328.15 K, x1 = 0.4523 | – | 45.3
328.15 K, x1 = 0.501 | – | 43.5
328.15 K, x1 = 0.59 | – | 41.7
328.15 K, x1 = 0.7027 | – | 40.2
328.15 K, x1 = 0.8088 | – | 39.2
328.15 K, x1 = 0.8945 | – | 38.7
